# Experimental data as given in patent US20260306527A1, “PRMT INHIBITOR COMPOUNDS AND THE USES THEREOF” (Purdue Research Foundation, priority 2023, published 2026).
# Biological target: PRMT6 (Homo sapiens, UniProt Q96LA8)
# Test: radioactive assay (Reaction Biology Corp.), inhibition of PRMT6
# Type: biochemical
# Conditions: not given
# Protocol: (§1) Next, the inhibition activity of the library was investigated for five PRMT members from type I PRMTs.
# (§2) The PRMT 4, 6 and 8 methylation assays were performed by Reaction Biology corp.
# Sequence of PRMT6 (Q96LA8 whole entry, species assumed): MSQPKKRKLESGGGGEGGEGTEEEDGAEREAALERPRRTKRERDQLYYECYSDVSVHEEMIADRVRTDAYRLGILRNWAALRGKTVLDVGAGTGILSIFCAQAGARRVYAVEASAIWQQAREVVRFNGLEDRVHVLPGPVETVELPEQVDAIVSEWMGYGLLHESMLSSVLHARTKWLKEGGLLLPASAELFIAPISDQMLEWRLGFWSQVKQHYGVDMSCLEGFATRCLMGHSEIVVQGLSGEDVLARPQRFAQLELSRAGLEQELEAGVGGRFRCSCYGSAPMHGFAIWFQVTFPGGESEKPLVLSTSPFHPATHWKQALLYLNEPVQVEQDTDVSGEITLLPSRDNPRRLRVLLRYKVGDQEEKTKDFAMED
row,Compound,inhibition at 10 µM
1,N=C(NCCCSC[C@H]1O[C@@H](n2cnc3c(N)ncnc32)[C@H](O)[C@@H]1O)Nc1cccc(-c2ccc(C(F)(F)F)cc2)c1 [Compound 6h],97%
2,N=C(NCCCSC[C@H]1O[C@@H](n2cnc3c(N)ncnc32)[C@H](O)[C@@H]1O)Nc1cccc(-c2cccc(F)c2)c1 [Compound 6j],97%
3,N=C(NCCCSC[C@H]1O[C@@H](n2cnc3c(N)ncnc32)[C@H](O)[C@@H]1O)Nc1cccc(-c2ccc(F)cc2F)c1 [Compound 6k],96%
4,N=C(NCCCSC[C@H]1O[C@@H](n2cnc3c(N)ncnc32)[C@H](O)[C@@H]1O)Nc1cccc(-c2ccc(F)c(O)c2)c1 [Compound 6l],97%
5,N=C(NCCCSC[C@H]1O[C@@H](n2cnc3c(N)ncnc32)[C@H](O)[C@@H]1O)Nc1cccc(-c2cccnc2)c1 [Compound 6m],93%

# Biological target: PRMT3 (Homo sapiens, UniProt O60678)
# Test: SAHH-coupled fluorescence assay, inhibition of PRMT3
# Type: biochemical
# Design: PRMT3 (residues 211-531) was cloned into the pET28a-MHL expression vector; tag of the pET28a-MHL vector (not described); made in house; host or cells: Escherichia coli BL21(DE3)
# Conditions: not given
# Summary of the method: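 Coupled SAHH/ThioGlo4 fluorescence read-out (ex 380 nm, em 505 nm) of PRMT3 (0.25 μM) methylation with 30 μM AdoMet and 5 μM SAHH. Buffer was 20 mM Tris pH 7.5 with 0.01% Triton X-100. Run in duplicate.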
# Sequence of PRMT3 (Homo sapiens, UniProt O60678) (O60678 211-531): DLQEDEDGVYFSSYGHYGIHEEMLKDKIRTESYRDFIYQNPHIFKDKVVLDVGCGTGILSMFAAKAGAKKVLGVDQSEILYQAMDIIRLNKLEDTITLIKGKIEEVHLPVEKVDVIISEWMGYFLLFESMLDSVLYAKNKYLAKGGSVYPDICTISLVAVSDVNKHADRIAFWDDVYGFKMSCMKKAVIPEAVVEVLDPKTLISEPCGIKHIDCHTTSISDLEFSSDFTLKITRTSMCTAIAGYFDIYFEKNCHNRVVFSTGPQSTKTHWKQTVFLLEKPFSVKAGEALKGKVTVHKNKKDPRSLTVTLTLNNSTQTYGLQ
row,Compound,inhibition at 10 µM
1,N=C(NCCCSC[C@H]1O[C@@H](n2cnc3c(N)ncnc32)[C@H](O)[C@@H]1O)Nc1cccc(-c2ccc(C(F)(F)F)cc2)c1 [Compound 6h],57%
2,N=C(NCCCSC[C@H]1O[C@@H](n2cnc3c(N)ncnc32)[C@H](O)[C@@H]1O)Nc1cccc(-c2cccc(F)c2)c1 [Compound 6j],45%
3,N=C(NCCCSC[C@H]1O[C@@H](n2cnc3c(N)ncnc32)[C@H](O)[C@@H]1O)Nc1cccc(-c2ccc(F)cc2F)c1 [Compound 6k],50%
4,N=C(NCCCSC[C@H]1O[C@@H](n2cnc3c(N)ncnc32)[C@H](O)[C@@H]1O)Nc1cccc(-c2ccc(F)c(O)c2)c1 [Compound 6l],58%
5,N=C(NCCCSC[C@H]1O[C@@H](n2cnc3c(N)ncnc32)[C@H](O)[C@@H]1O)Nc1cccc(-c2cccnc2)c1 [Compound 6m],22%

# Biological target: T1, PRMT1 (Homo sapiens, UniProt Q99873)
# T1 construct: made in house
# Test: SAHH-coupled fluorescence assay, inhibition of PRMT1
# Type: biochemical
# Conditions: not given
# Summary of the method: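 PRMT1 (0.1 μM) was run with 10 μM AdoMet, 5 μM SAHH and 10 μM ThioGlo4 in 2.5 mM HEPES pH 7.0, 25 mM NaCl, 25 μM EDTA, 50 μM TCEP and 0.01% Triton X-100. Fluorescence (ex 400/em 465 nm) was monitored for 15 min. Assays were done in duplicate.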
# T1 sequence (Q99873 whole entry, species assumed): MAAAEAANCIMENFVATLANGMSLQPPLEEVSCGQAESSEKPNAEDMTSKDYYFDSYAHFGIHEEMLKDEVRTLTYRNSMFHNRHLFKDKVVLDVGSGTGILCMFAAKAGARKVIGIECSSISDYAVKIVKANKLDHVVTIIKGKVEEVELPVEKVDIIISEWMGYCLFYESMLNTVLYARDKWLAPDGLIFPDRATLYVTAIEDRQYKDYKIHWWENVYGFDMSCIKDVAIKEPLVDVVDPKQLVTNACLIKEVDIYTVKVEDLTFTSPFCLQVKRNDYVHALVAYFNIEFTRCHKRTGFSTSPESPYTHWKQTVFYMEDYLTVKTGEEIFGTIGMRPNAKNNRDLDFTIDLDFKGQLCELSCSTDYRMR
row,Compound,inhibition at 10 µM
1,N=C(NCCCSC[C@H]1O[C@@H](n2cnc3c(N)ncnc32)[C@H](O)[C@@H]1O)Nc1cccc(-c2ccc(C(F)(F)F)cc2)c1 [Compound 6h],88%
2,N=C(NCCCSC[C@H]1O[C@@H](n2cnc3c(N)ncnc32)[C@H](O)[C@@H]1O)Nc1cccc(-c2cccc(F)c2)c1 [Compound 6j],96%
3,N=C(NCCCSC[C@H]1O[C@@H](n2cnc3c(N)ncnc32)[C@H](O)[C@@H]1O)Nc1cccc(-c2ccc(F)cc2F)c1 [Compound 6k],97%
4,N=C(NCCCSC[C@H]1O[C@@H](n2cnc3c(N)ncnc32)[C@H](O)[C@@H]1O)Nc1cccc(-c2ccc(F)c(O)c2)c1 [Compound 6l],92%
5,N=C(NCCCSC[C@H]1O[C@@H](n2cnc3c(N)ncnc32)[C@H](O)[C@@H]1O)Nc1cccc(-c2cccnc2)c1 [Compound 6m],88%

# Same assay, conditions: read-out: IC50[μM] | PRMT1
row,Compound,IC50
1,N=C(NCCCSC[C@H]1O[C@@H](n2cnc3c(N)ncnc32)[C@H](O)[C@@H]1O)Nc1cccc(-c2ccc(C(F)(F)F)cc2)c1 [Compound 6h],0.25 ± 0.051 µM
2,N=C(NCCCSC[C@H]1O[C@@H](n2cnc3c(N)ncnc32)[C@H](O)[C@@H]1O)Nc1cccc(-c2cccc(F)c2)c1 [Compound 6j],0.26 ± 0.057 µM
3,N=C(NCCCSC[C@H]1O[C@@H](n2cnc3c(N)ncnc32)[C@H](O)[C@@H]1O)Nc1cccc(-c2ccc(F)cc2F)c1 [Compound 6k],0.33 ± 0.072 µM
4,N=C(NCCCSC[C@H]1O[C@@H](n2cnc3c(N)ncnc32)[C@H](O)[C@@H]1O)Nc1cccc(-c2ccc(F)c(O)c2)c1 [Compound 6l],0.17 ± 0.022 µM
5,N=C(NCCCSC[C@H]1O[C@@H](n2cnc3c(N)ncnc32)[C@H](O)[C@@H]1O)Nc1cccc(-c2cccnc2)c1 [Compound 6m],0.9 ± 0.17 µM

# Biological target: T2, PRMT4 (Homo sapiens, UniProt Q86X55)
# T2 sequence (Q86X55 1-608): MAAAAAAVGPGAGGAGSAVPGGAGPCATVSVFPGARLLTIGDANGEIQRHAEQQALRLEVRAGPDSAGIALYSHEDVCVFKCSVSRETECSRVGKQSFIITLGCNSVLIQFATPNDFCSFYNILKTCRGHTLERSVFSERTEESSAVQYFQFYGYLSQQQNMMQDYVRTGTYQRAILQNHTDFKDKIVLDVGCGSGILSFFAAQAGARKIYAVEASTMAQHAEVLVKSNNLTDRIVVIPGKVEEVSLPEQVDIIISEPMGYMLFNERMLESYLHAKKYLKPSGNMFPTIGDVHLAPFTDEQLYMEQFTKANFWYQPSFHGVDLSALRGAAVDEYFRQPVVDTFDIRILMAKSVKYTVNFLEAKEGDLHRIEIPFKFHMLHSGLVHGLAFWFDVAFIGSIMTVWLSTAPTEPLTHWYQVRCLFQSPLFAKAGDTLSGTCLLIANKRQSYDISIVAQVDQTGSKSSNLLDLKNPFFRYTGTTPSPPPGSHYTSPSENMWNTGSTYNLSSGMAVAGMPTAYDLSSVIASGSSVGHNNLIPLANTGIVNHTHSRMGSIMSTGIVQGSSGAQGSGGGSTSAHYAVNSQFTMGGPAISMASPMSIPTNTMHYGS
# Test: radioactive assay (Reaction Biology Corp.), inhibition of PRMT4
# Type: biochemical
# Conditions: not given
# Protocol: as §1, §2
row,Compound,inhibition at 10 µM
1,N=C(NCCCSC[C@H]1O[C@@H](n2cnc3c(N)ncnc32)[C@H](O)[C@@H]1O)Nc1cccc(-c2ccc(C(F)(F)F)cc2)c1 [Compound 6h],100%
2,N=C(NCCCSC[C@H]1O[C@@H](n2cnc3c(N)ncnc32)[C@H](O)[C@@H]1O)Nc1cccc(-c2cccc(F)c2)c1 [Compound 6j],100%
3,N=C(NCCCSC[C@H]1O[C@@H](n2cnc3c(N)ncnc32)[C@H](O)[C@@H]1O)Nc1cccc(-c2ccc(F)cc2F)c1 [Compound 6k],100%
4,N=C(NCCCSC[C@H]1O[C@@H](n2cnc3c(N)ncnc32)[C@H](O)[C@@H]1O)Nc1cccc(-c2ccc(F)c(O)c2)c1 [Compound 6l],100%
5,N=C(NCCCSC[C@H]1O[C@@H](n2cnc3c(N)ncnc32)[C@H](O)[C@@H]1O)Nc1cccc(-c2cccnc2)c1 [Compound 6m],100%

# Biological target: PRMT8 (Homo sapiens, UniProt Q9NR22)
# Test: radioactive assay (Reaction Biology Corp.), inhibition of PRMT8
# Type: biochemical
# Conditions: not given
# Protocol: as §1, §2
# Sequence of PRMT8 (Q9NR22 whole entry, species assumed): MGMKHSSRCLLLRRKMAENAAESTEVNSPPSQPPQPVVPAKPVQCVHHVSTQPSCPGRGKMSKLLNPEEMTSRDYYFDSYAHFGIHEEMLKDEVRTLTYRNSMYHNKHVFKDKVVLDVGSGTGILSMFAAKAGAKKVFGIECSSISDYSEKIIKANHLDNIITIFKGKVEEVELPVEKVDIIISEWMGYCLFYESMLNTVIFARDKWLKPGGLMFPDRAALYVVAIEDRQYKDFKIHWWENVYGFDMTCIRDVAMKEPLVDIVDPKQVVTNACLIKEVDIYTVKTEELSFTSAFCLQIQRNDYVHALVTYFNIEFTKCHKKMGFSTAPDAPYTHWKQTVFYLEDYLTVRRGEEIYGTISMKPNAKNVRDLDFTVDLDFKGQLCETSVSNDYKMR
row,Compound,inhibition at 10 µM
1,N=C(NCCCSC[C@H]1O[C@@H](n2cnc3c(N)ncnc32)[C@H](O)[C@@H]1O)Nc1cccc(-c2ccc(C(F)(F)F)cc2)c1 [Compound 6h],99%
2,N=C(NCCCSC[C@H]1O[C@@H](n2cnc3c(N)ncnc32)[C@H](O)[C@@H]1O)Nc1cccc(-c2cccc(F)c2)c1 [Compound 6j],99%
3,N=C(NCCCSC[C@H]1O[C@@H](n2cnc3c(N)ncnc32)[C@H](O)[C@@H]1O)Nc1cccc(-c2ccc(F)cc2F)c1 [Compound 6k],99%
4,N=C(NCCCSC[C@H]1O[C@@H](n2cnc3c(N)ncnc32)[C@H](O)[C@@H]1O)Nc1cccc(-c2ccc(F)c(O)c2)c1 [Compound 6l],99%
5,N=C(NCCCSC[C@H]1O[C@@H](n2cnc3c(N)ncnc32)[C@H](O)[C@@H]1O)Nc1cccc(-c2cccnc2)c1 [Compound 6m],96%

# System: PRMT3
# Test: SAHH-coupled fluorescence assay, inhibition of PRMT3
# Type: biochemical
# Conditions: read-out: IC50[μM] | PRMT3
# Protocol: A fluorescence-based SAHH-coupled assay was applied to study the inhibition activity of all synthesized compounds on PRMT 1 and 3.
# (§3) The PRMT3 methylation assay was performed under the following conditions in a final well volume of 100 μL: 20 mM Tris (pH=7.5), 0.01% Triton X-100, 5 μM SAHH, 0.25 μM PRMT3, 30 μM AdoMet, and 15 μM ThioGlo4. […] Fluorescence was monitored on a BMG CLARIOstar microplate reader with excitation 380 nm and emission 505 nm. Data were processed by using GraphPad Prism software 8.0. All experiments were performed in duplicate.
# as §1
# as §3, with “8.0.” for “8.0. All experiments were performed in duplicate.”
row,Compound,IC50
1,N=C(NCCCSC[C@H]1O[C@@H](n2cnc3c(N)ncnc32)[C@H](O)[C@@H]1O)Nc1cccc(-c2ccc(C(F)(F)F)cc2)c1 [Compound 6h],5.7 ± 0.68 µM
2,N=C(NCCCSC[C@H]1O[C@@H](n2cnc3c(N)ncnc32)[C@H](O)[C@@H]1O)Nc1cccc(-c2cccc(F)c2)c1 [Compound 6j],4.7 ± 0.83 µM
3,N=C(NCCCSC[C@H]1O[C@@H](n2cnc3c(N)ncnc32)[C@H](O)[C@@H]1O)Nc1cccc(-c2ccc(F)cc2F)c1 [Compound 6k],6.6 ± 2.8 µM
4,N=C(NCCCSC[C@H]1O[C@@H](n2cnc3c(N)ncnc32)[C@H](O)[C@@H]1O)Nc1cccc(-c2ccc(F)c(O)c2)c1 [Compound 6l],5.5 ± 1 µM
5,N=C(NCCCSC[C@H]1O[C@@H](n2cnc3c(N)ncnc32)[C@H](O)[C@@H]1O)Nc1cccc(-c2cccnc2)c1 [Compound 6m],14 ± 3.1 µM
